The text below walks through data of US20250326769A1, “HETEROAROMATIC MACROCYCLIC ETHER CHEMOTHERAPEUTIC AGENTS” (Nuvalent, Inc., priority 2022, published 2025).

Holding throughout (type): cell-based
The target in assay [1] is Ba/F3 ETV6-TRKB (Homo sapiens, UniProt Q16620). The assay is described as follows: Ba/F3 cell proliferation assay, ETV6-TRKB. The settings on record: Ba/F3 stable cells, 72 hours, CellTiter-Glo; read-out: ETV6-TRKB IC50. From the text: (§1) Genes encoding EML4-ALK v1 (variant 1), EML4-ALK v1 G1202R, EML4-ALK v1 I1171IN, EML4-ALK v1 D1203N, EML4-ALK v1 I1171N/D1203N, and ETV6-TRKB were synthesized at GeneRay, cloned into the retroviral construct pMSCV-puro (Biovector), and packaged into retroviral particles. The virus was used to infect Ba/F3 cells (RIKEN) at multiplicity of infection=1 for 1 day. Infected cells were rescued in media (RPMI-1640 with 10% fetal bovine serum and 1% streptomycin and penicillin) supplemented with mouse IL-3 (10 ng/mL) for 2 days, and stable cell lines were selected by IL-3 withdrawal and puromycin (0.8 μg/mL) for 7 days. Monoclones were selected by single-cell dilution in IL-3-free medium containing puromycin (0.8 μg/mL). Transformation of desired genes was confirmed by Sanger sequencing and western blot using the following antibodies: ALK (CST #3633) and pan-TRK (Abcam #76291).
(§2) Stable cells were plated in a 384-well plate. Test compounds were then added in a 3-fold dilution series and incubated for 72 hours. CellTiter-Glo reagent (Promega) was added. Luminescence was measured on a plate reader. Half-maximal inhibitory concentration (ICso) was calculated from percent inhibition and inhibitor concentration using four-parameter logistic regression. Compound potency can be interpreted by binning IC50 values: bin A for high potency, 0.1 nM IC50<50 nM; bin B for medium potency, 50 nM<IC50<500 nM; and bin C for low potency, IC50>500 nM. […] Exemplary data is given in Table 4 (nd is not determined).
(§3) Ba/F3 proliferation is driven by the transduced oncogenes in the same way that cancer cell proliferation in humans is driven by the expression of equivalent oncogenes.

Assay [2] addresses Ba/F3 EML4-ALK v1 I1171N/D1203N (Homo sapiens (Human), UniProt Q9HC35+Q9UM73, D1203N/I1171N). The assay is described as follows: Ba/F3 cell proliferation assay, EML4-ALK v1 I1171N/D1203N. Conditions: for IC50: Ba/F3 stable cells, 72 hours, CellTiter-Glo; for ETV6-TRKB / EML4-ALK v1 I1171N/D1203N / Selectivity for Ba/F3 EML4-ALK v1 I1171N-D1203N IC50 over Ba/F3 ETV6-TRKB IC50: TRKB selectivity, ratio of Ba/F3 IC50 values; for Selectivity for Ba/F3 EML4-ALK v1 I1171N-D1203N IC50 over Ba/F3 ETV6-TRKB IC50: Table 6 bins.
Source text: as §1, §2, §3
(§4) TRKB selectivity was calculated by dividing a compound's TRKB potency by its primary target potency (e.g., ETV6-TRKB IC50/EML4-ALK v1 IC50). Compound selectivity can be interpreted by binning ratio values: bin A for very high selectivity, ratio≥30-fold; bin B for high selectivity, ratio≥10-fold but<30; bin C for moderate selectivity, ratio≥1 but<10; and bin D for low selectivity, ratio<1. […] (nd=not determined).
Additional exemplified compounds were also tested against ALK-INDN and TRKB. The TRKB selectivity was calculated by dividing a compound's TRKB potency by its primary target potency (e.g., ETV6-TRKB IC50/EMIL4-ALK I1171N-D1203N v1 IC50). Compound selectivity can be interpreted by binning ratio values: bin AA for the selectivity with the ratio≥30-fold; bin BB for the selectivity with the ratio≥10-fold but<30; bin CC for the selectivity with the ratio≥5 but<10; bin DD for the selectivity with the ratio≥1 but<5; and bin EE for the selectivity with the ratio<1.

Assay [3] deals with Ba/F3 EML4-ALK v1 I1171N (Homo sapiens (Human), UniProt Q9HC35+Q9UM73, I1171N). The assay is described as follows: Ba/F3 cell proliferation assay, EML4-ALK v1 I1171N. Conditions: for IC50: Ba/F3 stable cells, 72 hours, CellTiter-Glo; for ETV6-TRKB / EML4-ALK v1 I1171N: TRKB selectivity, ratio of Ba/F3 IC50 values.
Source text: as §1, §2, §3, §4

Chain of Ba/F3 EML4-ALK v1 I1171N/D1203N (Q9UM73 other isoform, or with tags, fused parts or gaps I1171N/D1203N): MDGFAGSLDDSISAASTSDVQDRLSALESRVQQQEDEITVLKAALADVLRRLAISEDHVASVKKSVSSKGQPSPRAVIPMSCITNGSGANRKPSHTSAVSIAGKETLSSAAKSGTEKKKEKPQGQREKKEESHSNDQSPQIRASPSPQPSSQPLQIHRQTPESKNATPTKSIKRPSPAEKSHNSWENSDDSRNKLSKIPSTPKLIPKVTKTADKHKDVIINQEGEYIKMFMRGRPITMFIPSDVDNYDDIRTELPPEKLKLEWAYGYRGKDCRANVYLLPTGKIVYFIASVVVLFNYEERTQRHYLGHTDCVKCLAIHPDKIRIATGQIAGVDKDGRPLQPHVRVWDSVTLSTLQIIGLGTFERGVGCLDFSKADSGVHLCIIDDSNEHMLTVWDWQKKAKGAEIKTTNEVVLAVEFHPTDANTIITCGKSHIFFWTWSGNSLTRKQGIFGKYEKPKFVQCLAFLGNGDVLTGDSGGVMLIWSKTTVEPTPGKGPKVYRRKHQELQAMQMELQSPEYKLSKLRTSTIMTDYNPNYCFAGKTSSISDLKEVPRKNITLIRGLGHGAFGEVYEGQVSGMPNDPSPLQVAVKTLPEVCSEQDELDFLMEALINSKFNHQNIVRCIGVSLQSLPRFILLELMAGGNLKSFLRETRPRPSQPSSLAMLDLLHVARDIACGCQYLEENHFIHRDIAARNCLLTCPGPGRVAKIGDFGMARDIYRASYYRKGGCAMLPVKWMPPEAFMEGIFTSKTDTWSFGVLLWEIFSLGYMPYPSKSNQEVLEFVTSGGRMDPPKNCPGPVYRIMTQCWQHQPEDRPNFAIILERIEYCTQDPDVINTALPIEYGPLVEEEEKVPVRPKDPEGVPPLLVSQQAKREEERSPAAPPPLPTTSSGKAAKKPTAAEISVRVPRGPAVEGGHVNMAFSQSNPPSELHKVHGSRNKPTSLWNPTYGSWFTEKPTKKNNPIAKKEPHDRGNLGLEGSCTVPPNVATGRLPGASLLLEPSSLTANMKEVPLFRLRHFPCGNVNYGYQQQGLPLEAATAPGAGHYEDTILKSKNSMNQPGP
Chain of Ba/F3 EML4-ALK v1 I1171N (Q9UM73 other isoform, or with tags, fused parts or gaps I1171N): as the sequence (Q9UM73 other isoform, or with tags, fused parts or gaps I1171N/D1203N) above, with N642D counted along it
Chain of Ba/F3 ETV6-TRKB (Q16620 32-822 limits assumed, stated change not applied): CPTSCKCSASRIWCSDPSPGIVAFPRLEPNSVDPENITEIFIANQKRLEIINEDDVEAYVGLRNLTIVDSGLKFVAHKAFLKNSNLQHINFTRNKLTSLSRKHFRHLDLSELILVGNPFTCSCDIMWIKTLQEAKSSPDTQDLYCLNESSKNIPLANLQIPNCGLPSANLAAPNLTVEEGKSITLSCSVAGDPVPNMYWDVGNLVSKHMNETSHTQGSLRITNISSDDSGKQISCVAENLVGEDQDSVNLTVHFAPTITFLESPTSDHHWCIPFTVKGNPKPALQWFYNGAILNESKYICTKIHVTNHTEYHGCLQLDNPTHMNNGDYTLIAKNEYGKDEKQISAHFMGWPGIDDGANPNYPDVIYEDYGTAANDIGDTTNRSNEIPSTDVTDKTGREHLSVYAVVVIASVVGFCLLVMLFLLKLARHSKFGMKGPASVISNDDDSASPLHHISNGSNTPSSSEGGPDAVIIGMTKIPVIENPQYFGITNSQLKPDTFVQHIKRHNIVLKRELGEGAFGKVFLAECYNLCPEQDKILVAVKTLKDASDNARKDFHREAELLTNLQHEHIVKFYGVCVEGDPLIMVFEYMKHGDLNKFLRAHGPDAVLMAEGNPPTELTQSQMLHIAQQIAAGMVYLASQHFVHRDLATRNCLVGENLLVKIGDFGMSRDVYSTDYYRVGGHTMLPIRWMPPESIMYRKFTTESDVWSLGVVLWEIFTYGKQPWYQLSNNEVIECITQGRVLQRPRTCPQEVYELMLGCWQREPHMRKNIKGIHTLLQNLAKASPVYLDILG

On to `C[C@H]1Oc2cc(cnc2N)-c2c(nn(C)c2C#N)C(=O)c2cn(C)nc2-c2c(F)cc(F)cc21` [Example 26, (R)-22-amino-14,16-difluoro-4,10-dimethyl-19-methyl-7-oxo-20-oxa-4,5,10,11,23-pentaazapentacyclo[19.3.1.0^2,^6.0^8,^12.0^13,^18]pentacosa-1(24),2,5,8,11,13,15,17,21(25),22-decaene-3-carbonitrile], for which the half-maximal inhibitory concentration (IC50) in assay [1] is greater than 500 nM. In assay [2], the IC50 fell in the range of 0.1 to 50 nM; the “ETV6-TRKB / EML4-ALK v1 I1171N/D1203N” value is “A (bin A for very high selectivity, ratio≥30-fold)”; the “Selectivity for Ba/F3 EML4-ALK v1 I1171N-D1203N IC50 over Ba/F3 ETV6-TRKB IC50” value (“Selectivity” below) is listed as “AA (bin AA for the selectivity with the ratio≥30-fold)”. Moreover, in assay [3], the 50% inhibitory concentration (IC50) was 50 to 500 nM and the “ETV6-TRKB / EML4-ALK v1 I1171N” value is recorded as “A (bin A for very high selectivity, ratio≥30-fold)”.
Take `C[C@H]1Oc2cc(cnc2N)-c2c(cnn2CC2CC2)C(=O)c2cccnc2-c2ccc(F)cc21` [Example 29, (R)-23-amino-3-(cyclopropylmethyl)-17-fluoro-20-methyl-21-oxa-3,4, 12,24-tetraazapentacyclo[20.3.1.0^2,^6.0^8,^13.0^14,^19]hexacosa-1(25),2(6),4,8(13),9,11,14,16,18,22(26),23-undecaen-7-one]: in assay [1], the IC50 is greater than 500 nM. For the same compound, in assay [2], the half-maximal inhibitory concentration (IC50) was greater than 500 nM; the “ETV6-TRKB / EML4-ALK v1 I1171N/D1203N” value is reported as “B (bin B for high selectivity, ratio≥10-fold but<30)”; the “Selectivity” value is recorded as “BB (bin BB for the selectivity with the ratio≥10-fold but<30)”. Moreover, in assay [3], the IC50 was greater than 500 nM and the “ETV6-TRKB / EML4-ALK v1 I1171N” value is “B (bin B for high selectivity, ratio≥10-fold but<30)”.
As to `CCn1nc(C(=O)N(C)C)c2c1-c1cnc(N)c(c1)O[C@H](C)c1cc(F)cc(F)c1-c1ncccc1C2` [Example 46, N,N-dimethyl-(R)-23-amino-3-ethyl-15,17-difluoro-20-methyl-21-oxa-3,4,12,24-tetraazapentacyclo[20.3.1.0^2,^6.0^8,^13.0^14,^19]hexacosa-1(25),2(6),4,8(13),9,11,14,16,18,22(26),23-undecaene-5-carboxamide], in assay [1], the IC50 fell in the range of 50 to 500 nM. In assay [2], the IC50 is 0.1 to 50 nM and the “ETV6-TRKB / EML4-ALK v1 I1171N/D1203N” value was “B (bin B for high selectivity, ratio≥10-fold but<30)”. Besides, in assay [3], the IC50 was in the range of 50 to 500 nM and the “ETV6-TRKB / EML4-ALK v1 I1171N” value is given as “C (bin C for moderate selectivity, ratio≥1 but<10)”.
With `C[C@H]1Oc2cc(cnc2N)-c2c(c(C(=O)N(C)C)nn2C2CCC2)Cc2cccnc2-c2ccc(F)cc21` [Example 48, N,N-dimethyl-(R)-23-amino-3-cyclobutyl-17-fluoro-20-methyl-21-oxa-3,4,12,24-tetraazapentacyclo[20.3.1.0^2,^6.0^8,^13.0^14,^19]hexacosa-1(25),2(6),4,8(13),9,11,14,16,18,22(26),23-undecaene-5-carboxamide], the 50% inhibitory concentration (IC50) in assay [1] was 50 to 500 nM; in assay [2], 0.1 to 50 nM; in assay [3], 0.1 to 50 nM.
Regarding `CCn1nc2c(c1C#N)-c1cnc(N)c(c1)O[C@H](C)c1cc(F)ccc1-c1ncccc1C2=O` [Example 50, (R)-23-amino-4-ethyl-17-fluoro-20-methyl-7-oxo-21-oxa-4,5,12,24-tetraazapentacyclo[20.3.1.0^2,^6.0^8,^13.0^14,^19]hexacosa-1(25),2,5,8,10,12,14,16,18,22(26),23-undecaene-3-carbonitrile], in assay [1], the half-maximal inhibitory concentration (IC50) lay in the range of 50 to 500 nM. Further, in assay [2], the IC50 lay in the range of 0.1 to 50 nM; the “ETV6-TRKB / EML4-ALK v1 I1171N/D1203N” value was “A (bin A for very high selectivity, ratio≥30-fold)”; the “Selectivity” value is “AA (bin AA for the selectivity with the ratio≥30-fold)”. For the same compound, in assay [3], the IC50 was in the range of 0.1 to 50 nM and the “ETV6-TRKB / EML4-ALK v1 I1171N” value is “A (bin A for very high selectivity, ratio≥30-fold)”.
`CC(C)n1nc2c(c1C#N)-c1cnc(N)c(c1)O[C@H](C)c1cc(F)ccc1-c1ncccc1C2=O` [Example 51, (R)-23-amino-17-fluoro-4-isopropyl-20-methyl-7-oxo-21-oxa-4,5,12,24-tetraazapentacyclo[20.3.1.0^2,^6.0^8,^13.0^14,^19]hexacosa-1(25),2,5,8,10,12,14,16,18,22(26),23-undecaene-3-carbonitrile]: the IC50 in assay [1] is 50 to 500 nM. Further, in assay [2], the concentration for half-maximal inhibition (IC50) is 0.1 to 50 nM; the “ETV6-TRKB / EML4-ALK v1 I1171N/D1203N” value is “A (bin A for very high selectivity, ratio≥30-fold)”; the “Selectivity” value is “AA (bin AA for the selectivity with the ratio≥30-fold)”. In assay [3], the IC50 was 0.1 to 50 nM and the “ETV6-TRKB / EML4-ALK v1 I1171N” value is reported as “A (bin A for very high selectivity, ratio≥30-fold)”.
`COCCn1nc2c(c1C#N)-c1cnc(N)c(c1)O[C@H](C)c1cc(F)ccc1-c1ncccc1C2=O` [Example 52, (R)-23-amino-17-fluoro-4-(2-methoxyethyl)-20-methyl-7-oxo-21-oxa-4,5,12,24-tetraazapentacyclo[20.3.1.0^2,^6.0^8,^13.0^14,^19]hexacosa-1(25),2,5,8,10,12,14,16,18,22(26),23-undecaene-3-carbonitrile]: in assay [1], the IC50 lay within 50 to 500 nM. Moreover, in assay [2], the 50% inhibitory concentration (IC50) fell in the range of 0.1 to 50 nM; the “ETV6-TRKB / EML4-ALK v1 I1171N/D1203N” value is “A (bin A for very high selectivity, ratio≥30-fold)”; the “Selectivity” value was “AA (bin AA for the selectivity with the ratio≥30-fold)”. Also, in assay [3], the half-maximal inhibitory concentration (IC50) lay in the range of 0.1 to 50 nM and the “ETV6-TRKB / EML4-ALK v1 I1171N” value is on record as “A (bin A for very high selectivity, ratio≥30-fold)”.
Regarding `C[C@H]1Oc2cc(cnc2N)-c2c(nn(C)c2CC2CC2)C(=O)c2cccnc2-c2ccc(F)cc21` [Example 53, (R)-23-amino-3-(cyclopropylmethyl)-17-fluoro-4-methyl-20-methyl-21-oxa-4,5,12,24-tetraazapentacyclo[20.3.1.0^2,^6.0^8,^13.0^14,^19]hexacosa-1(25),2,5,8,10,12,14,16,18,22(26),23-undecaen-7-one], the half-inhibitory concentration (IC50) in assay [1] is greater than 500 nM. Further, in assay [2], the IC50 lay within 0.1 to 50 nM and the “ETV6-TRKB / EML4-ALK v1 I1171N/D1203N” value is “A (bin A for very high selectivity, ratio≥30-fold)”. Further, in assay [3], the IC50 was in the range of 50 to 500 nM and the “ETV6-TRKB / EML4-ALK v1 I1171N” value is given as “B (bin B for high selectivity, ratio≥10-fold but<30)”.
For the compound `CCc1c2c(nn1C)C(=O)c1cccnc1-c1ccc(F)cc1[C@@H](C)Oc1cc-2cnc1N` [Example 54, (R)-23-amino-3-ethyl-17-fluoro-4-methyl-20-methyl-21-oxa-4,5,12,24-tetraazapentacyclo[20.3.1.0^2,^6.0^8,^13.0^14,^19]hexacosa-1(25),2,5,8,10,12,14,16,18,22(26),23-undecaen-7-one], the 50% inhibitory concentration (IC50) in assay [1] was 0.1 to 50 nM. In assay [2], the half-inhibitory concentration (IC50) was in the range of 0.1 to 50 nM and the “ETV6-TRKB / EML4-ALK v1 I1171N/D1203N” value is recorded as “B (bin B for high selectivity, ratio≥10-fold but<30)”. Also, in assay [3], the IC50 lay in the range of 0.1 to 50 nM and the “ETV6-TRKB / EML4-ALK v1 I1171N” value is “C (bin C for moderate selectivity, ratio≥1 but<10)”.
With `C[C@H]1Oc2cc(cnc2N)-c2c(C3CCC3)nn(C(=O)N(C)C)c2Cc2cccnc2-c2ccc(F)cc21` [Example 57, (R)-5-(N,N-dimethylcarbamoyl)-3-cyclobutyl-17-fluoro-20-methyl-21-oxa-4,5,12,24-tetraazapentacyclo[20.3.1.0^2,^6.0^8,^13.0^14,^19]hexacosa-1(25),2(6),3,8(13),9,11,14,16,18,22(26),23-undecaen-23-ylamine], the IC50 is 50 to 500 nM in assay [1], 0.1 to 50 nM in assay [2] and 0.1 to 50 nM in assay [3].
